These molecules were tested on IL-1β production in PMA-differentiated THP-1 cells (assay: IL-1β production in PMA-differentiated THP-1 cells stimulated with gramicidin (hTHP-1 assay, 2% fetal bovine serum; Procedures 1-3)). Conditions: Homo sapiens, THP-1, hTHP-1 assay containing 2% fetal bovine serum, Table B2, class symbols; read-out: IC50.
Assay type: cell-based, human
Procedure, shortened: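 IL-1β released into supernatants was read by HTRF after 2 h gramicidin (5 μM) challenge. Before challenge, compounds (3-fold dilutions, top 100 μM, 0.37% DMSO) were given 1 h on THP-1 cells differentiated with PMA (20 ng/ml, 16-18 h) and held in 2% FBS medium.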

Row | IC50 | SMILES
1 | 5000 to 30000 nM | CC(C)N(C)c1ccc(S(N)(=O)=NC(=O)Nc2c3c(cc4c2CCC4)CCC3)cc1 (single isomer, unassigned) [Example 615, (R) or (S)-N′-((1,2,3,5,6,7-hexahydro-s-indacen-4-yl)carbamoyl)-4-(isopropyl(methyl)amino) benzenesulfonimidamide]
2 | 1000 to 5000 nM | NS(=O)(=NC(=O)Nc1c2c(cc3c1CCC3)CCC2)c1ccc(CN2CCC(F)(F)C2)cc1 (single isomer, unassigned) [Example 620, (R) or (S)-4-((3,3-difluoropymolidin-1-yl)methyl)-N′-((1,2,3,5,6,7-hexahydro-s-indacen-4-yl)carbamoyl) benzenesulfonimidamide]
3 | 8 to 40 nM | CC(O)(CO)c1ncc(S(N)(=O)=NC(=O)Nc2c3c(cc4c2CCC4)CCC3)s1 (single isomer, unassigned) [Example 626]

Same assay, conditions: Homo sapiens, THP-1, hTHP-1 assay containing 2% fetal bovine serum, Table B2, given as bound; read-out: IC50

Row | IC50 | SMILES
4 | > 30000 nM | CN(Cc1ccc(S(N)(=O)=NC(=O)Nc2c3c(cc4c2CCC4)CCC3)cc1)CC(F)F (single isomer, unassigned) [Example 611, (S) or (R)-4-(((2,2-difluoroethyl) (methyl)amino)methyl)-N′-((1,2,3,5,6,7-hexahydro-s-indacen-4-yl)carbamoyl) benzenesulfonimidamide]
5 | > 30000 nM | NS(=O)(=NC(=O)Nc1c2c(cc3c1CCC3)CCC2)c1ccccc1 (single isomer, unassigned) [Example 612, (R) or (S)-N′-((1,2,3,5,6,7-hexahydro-s-indacen-4-yl)carbamoyl) benzenesulfonimidamide]
6 | > 30000 nM | CC(C)N(C)c1ccc(S(N)(=O)=NC(=O)Nc2c3c(cc4c2CCC4)CCC3)cc1 (single isomer, unassigned) [Example 614, (S) or (R)-N′-((1,2,3,5,6,7-hexahydro-s-indacen-4-yl)carbamoyl)-4-(isopropyl(methyl)amino) benzenesulfonimidamide]
7 | > 30000 nM | CC(C)Cc1ccc(S(N)(=O)=NC(=O)Nc2c3c(cc4c2CCC4)CCC3)cc1 (single isomer, unassigned) [Example 618, (S) or (R)-N′-((1,2,3,5,6,7-hexahydro-s-indacen-4-yl)carbamoyl)-4-isobutylbenzene-sulfonimidamide]
8 | > 30000 nM | NS(=O)(=NC(=O)Nc1c2c(cc3c1CCC3)CCC2)c1ccc(CN2CCC(F)(F)C2)cc1 (single isomer, unassigned) [Example 621, (S) or (R)-4-((3,3-difluoropymolidin-1-yl)methyl)-N′-((1,2,3,5,6,7-hexahydro-s-indacen-4-yl)carbamoyl) benzenesulfonimidamide]
9 | > 30000 nM | NS(=O)(=NC(=O)Nc1c2c(cc3c1CCC3)CCC2)c1ccc(C2CCNC2)cc1F (single isomer, unassigned) [Example 622, (R,S) or (S,S)-2-fluoro-N′-((1,2,3,5,6,7-hexahydro-s-indacen-4-yl)carbamoyl)-4-pyrrolidin-3-yl) benzenesulfonimidamide]

Same assay, conditions: hTHP-1 assay containing 2% fetal bovine serum, Table B2, class symbols; read-out: IC50

Row | SMILES | IC50
10 | CN(C)Cc1ccc(S(N)(=O)=NC(=O)Nc2c3c(cc4c2CCC4)CCC3)cn1 (single isomer, unassigned) [Example 616, (S) or (R)-6-((dimethylamino)methyl)-N′-((1,2,3,5,6,7-hexahydro-s-indacen-4-yl)carbamoyl) pyridine-3-sulfonimidamide] | 5000 to 30000 nM
11 | CN(C)Cc1ccc(S(N)(=O)=NC(=O)Nc2c3c(cc4c2CCC4)CCC3)cn1 (single isomer, unassigned) [Example 617, (R) or (S)-6-((dimethylamino)methyl)-N′-((1,2,3,5,6,7-hexahydro-s-indacen-4-yl)carbamoyl) pyridine-3-sulfonimidamide] | 200 to 1000 nM

More lines, now with the values ahead:

Row | IC50 | SMILES
12 | 200 to 1000 nM | NS(=O)(=NC(=O)Nc1c2c(cc3c1CCC3)CCC2)c1ccc(C2CCNC2)cc1F (single isomer, unassigned) [Example 624, (R,R) or (S,R)-2-fluoro-N′-((1,2,3,5,6,7-hexahydro-s-indacen-4-yl)carbamoyl)-4-pyrrolidin-3-yl) benzenesulfonimidamide]
13 | 200 to 1000 nM | NS(=O)(=NC(=O)Nc1c2c(cc3c1CCC3)CCC2)c1ccc(C2CCNC2)cc1F (single isomer, unassigned) [Example 625, (S,R) or (R,R)-2-fluoro-N′-((1,2,3,5,6,7-hexahydro-s-indacen-4-yl)carbamoyl)-4-pyrrolidin-3-yl) benzenesulfonimidamide]
14 | 200 to 1000 nM | CC(O)(CO)c1ncc(S(N)(=O)=NC(=O)Nc2c3c(cc4c2CCC4)CCC3)s1 (single isomer, unassigned) [Example 627, (R,S) or (S,S)-1,2-dihydroxypropan-2-yl)-N′-((l,2,3,5,6,7-hexahydro-s-indacen-4-yl) carbamoyl) thiazole-5-sulfonimidamide]
15 | 200 to 1000 nM | CC(O)(CO)c1ncc(S(N)(=O)=NC(=O)Nc2c3c(cc4c2CCC4)CCC3)s1 (single isomer, unassigned) [Example 628, (S,S) or (R,S)-1,2-dihydroxypropan-2-yl)-N′-((l,2,3,5,6,7-hexahydro-s-indacen-4-yl) carbamoyl) thiazole-5-sulfonimidamide]
16 | 40 to 200 nM | CC(O)(CO)c1cc(F)c(S(N)(=O)=NC(=O)Nc2c3c(c(C#N)c4c2CCC4)CCC3)s1 (single isomer, unassigned) [Example 629, (S,R) or (R,R)-N′-((8-cyano-1,2,3,5,6,7-hexahydro-s-indacen-4-yl)carbamoyl)-5-(1,2-dihydroxypropan-2-yl)-3-fluorothiophene-2-sulfonimidamide]
17 | 8 to 40 nM | CC(O)(CO)c1cc(F)c(S(N)(=O)=NC(=O)Nc2c3c(c(C#N)c4c2CCC4)CCC3)s1 (single isomer, unassigned) [Example 630, (R,R) or (S,R)-N′-((8-cyano-1,2,3,5,6,7-hexahydro-s-indacen-4-yl)carbamoyl)-5-(1,2-dihydroxypropan-2-yl)-3-fluorothiophene-2-sulfonimidamide]
18 | 5000 to 30000 nM | CC(O)(CO)c1cc(F)c(S(N)(=O)=NC(=O)Nc2c3c(c(C#N)c4c2CCC4)CCC3)s1 (single isomer, unassigned) [Example 632]
19 | 5000 to 30000 nM | CC(O)(CO)c1cc(F)c(S(N)(=O)=NC(=O)Nc2c3c(c(C#N)c4c2CCC4)CCC3)s1 (single isomer, unassigned) [Example 633]
20 | 200 to 1000 nM | CC(O)(CO)c1ncc(S(N)(=O)=NC(=O)Nc2c3c(c(C#N)c4c2CCC4)CCC3)s1 (single isomer, unassigned) [Example 634]

Same assay, conditions: hTHP-1 assay containing 2% fetal bovine serum, Table B2, given as bound; read-out: IC50

Row | IC50 | SMILES
21 | > 30000 nM | NS(=O)(=NC(=O)Nc1c2c(cc3c1CCC3)CCC2)c1ccccc1 (single isomer, unassigned) [Example 613, (S) or (R)-N′-((1,2,3,5,6,7-hexahydro-s-indacen-4-yl)carbamoyl) benzenesulfonimidamide]
22 | > 30000 nM | CC(C)Cc1ccc(S(N)(=O)=NC(=O)Nc2c3c(cc4c2CCC4)CCC3)cc1 (single isomer, unassigned) [Example 619, (R) or (S)-N′-((1,2,3,5,6,7-hexahydro-s-indacen-4-yl)carbamoyl)-4-isobutylbenzene-sulfonimidamide]
23 | > 30000 nM | NS(=O)(=NC(=O)Nc1c2c(cc3c1CCC3)CCC2)c1ccc(C2CCNC2)cc1F (single isomer, unassigned) [Example 623, (S,S) or (R,S)-2-fluoro-N′-((1,2,3,5,6,7-hexahydro-s-indacen-4-yl)carbamoyl)-4-(- pyrrolidin-3-yl) benzenesulfonimidamide]
